Test results: paper PMC7155171, “Probing the Open Global Health Chemical Diversity Library for Multistage-Active Starting Points for Next-Generation Antimalarials” (ACS Infectious Diseases, 2020)
Where two headings read alike, the source gives them in different places.

Experiments:
[1] = system: P. berghei liver stage (PbLuc); experiment: P. berghei luciferase liver stage (PbLuc) assay in HepG2-A16-CD81 hepatocytes; format: cell-based, Plasmodium berghei; conditions: Plasmodium berghei; for Emax: 12pt dose response, maximum inhibition
[2] = system: HepG2-A16-CD81 hepatocytes; experiment: HepG2 cytotoxicity screening (CellTiter-Glo); conditions: for HepG2 cytotoxicity 12pt dose response: Maximum inhibition (%): 12pt dose response
[3] = HepG2 cytotoxicity screening (CellTiter-Glo); conditions: human, uninfected HepG2-A16-CD81 (EGFP) hepatocytes
[4] = target: recombinant firefly luciferase (Photinus pyralis, UniProt P08659); experiment: biochemical; conditions: dose response
[5] = HepG2-A16-CD81, 12pt dose response, read-out: PbLuc 12pt dose response: IC50

recombinant firefly luciferase, sequence (P08659 whole entry): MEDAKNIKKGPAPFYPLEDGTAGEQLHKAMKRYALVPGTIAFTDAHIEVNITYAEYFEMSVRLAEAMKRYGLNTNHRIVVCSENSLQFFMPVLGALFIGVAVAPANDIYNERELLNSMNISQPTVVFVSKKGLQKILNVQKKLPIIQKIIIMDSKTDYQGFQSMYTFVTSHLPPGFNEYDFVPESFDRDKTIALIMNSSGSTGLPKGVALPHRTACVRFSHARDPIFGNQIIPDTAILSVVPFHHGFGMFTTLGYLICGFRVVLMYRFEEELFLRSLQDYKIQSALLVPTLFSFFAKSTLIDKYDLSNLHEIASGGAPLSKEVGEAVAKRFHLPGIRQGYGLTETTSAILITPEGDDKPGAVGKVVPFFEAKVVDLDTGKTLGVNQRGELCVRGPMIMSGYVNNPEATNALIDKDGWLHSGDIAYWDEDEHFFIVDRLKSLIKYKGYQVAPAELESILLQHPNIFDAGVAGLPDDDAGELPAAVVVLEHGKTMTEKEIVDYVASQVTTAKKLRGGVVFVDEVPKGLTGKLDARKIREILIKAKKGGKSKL

SMILES	IC50 [1, 5]	Emax ([1]; HepG2-A16-CD81, 48 h)	HepG2 cytotoxicity 12pt dose response: Maximum inhibition (%) [2]	IC50 [3]	inhibition at 2 µM [3]	also measured
CCc1nc(CN2CCCN(c3ncnc4ccsc34)CC2)no1 [DDD01071387]	–	–	–	–	–	IC50 ([1]; HepG2-A16-CD81, 48 h, 48 h liver stage, HepG2-A16-CD81, read-out: Pbluc (EEF) IC50): 9.87 µM; IC50 ([2]; HepG2-A16-CD81, read-out: HepG2 tox IC50): > 50 µM
NC(=O)C1CN(C(=O)Nc2cc(Cl)cc(Cl)c2)CCO1 (stereo not drawn) [UCSD-0586016]	1.39 µM	102%	92.5%	16.9 µM	11.4%	–
CCc1nc(CN2CCCN(c3ncnc4ccsc34)CC2)no1 [UCSD-0620395]	9.87 µM	–	49.7%	> 50 µM	12.5%	–
Cc1ccc(CN2CCCC3(CCN(Cc4ccoc4)CC3)C2)cc1 [UCSD-0791105]	7.88 µM	99.9%	55.5%	43.8 µM	-2.23%	–
Cc1nc(NCc2nonc2C)cc(C(C)Cn2nc(C)c(C)c2C)n1 (stereo not drawn) [UCSD-0799497]	–	–	–	–	87.2%	inhibition at 10 µM ([1]; HepG2-A16-CD81, primary screen, 10 uM): 60.2%
CN(CCc1ccncc1)CCc1nccs1 [UCSD-0805829]	0.495 µM	87.7%	-1.84%	> 50 µM	2.05%	–
CCn1ccnc1CNCC(c1ccc(C)s1)N1CCOCC1 (stereo not drawn) [UCSD-0810145]	38.3 µM	88.9%	56.3%	46.2 µM	16.3%	–
CC(C)CC(=O)NCc1cccc(OCCN(C)C2CCOCC2)c1 [UCSD-0810838]	> 50 µM	39.1%	7.9%	> 50 µM	38.8%	–
Cc1n[nH]cc1CNC1CCN(c2cccc(C(F)(F)F)c2)CC1 [UCSD-0814169]	9.3 µM	88.9%	7.17%	> 50 µM	-9.01%	–
CCOc1ccccc1CNC(=O)NCC(c1cnn(C)c1)N(C)C (stereo not drawn) [UCSD-0816742]	> 50 µM	36.1%	-5.65%	> 50 µM	13.9%	–
Cc1cccc(NCc2ncc(C(C)(C)C)o2)c1 [UCSD-0816980]	16.6 µM	73.4%	11.5%	> 50 µM	14.1%	–
CCc1nnsc1C(=O)NC1CCN(CCOc2ccc(Br)cc2)CC1 [UCSD-0818165]	–	–	–	–	23.1%	–
Cc1cc(Br)cnc1NCCN1CCC(N(C)C)CC1 [UCSD-0818517]	–	–	–	–	4.34%	–
CC(C)CC(C)N(C)C(=O)CCn1cccn1 (stereo not drawn) [UCSD-0818578]	–	–	–	–	-0.31%	–
Cc1nc(C(=O)N2CC[C@@]3(C[C@@H](NS(C)(=O)=O)CCO3)C2)cs1 [UCSD-0821817]	–	–	–	–	25.6%	–
c1ccc(OC2COC3(CCN(Cc4ccccn4)CC3)C2)cc1 (stereo not drawn) [UCSD-0822599]	–	–	–	–	16.7%	–
CN(Cc1ccncc1)C1COC2(CCN(Cc3nccn3C)CC2)C1 (stereo not drawn) [UCSD-0822929]	–	–	–	–	2.08%	–
CCc1ccccc1OC1CN(C(=O)c2ccnc(OC)c2)C1 [UCSD-0824378]	16.6 µM	80.5%	46.8%	> 50 µM	8.15%	–
CN1CCN(CCc2ncnn2-c2ccc3c(c2)OCO3)CC1 [UCSD-0825202]	–	–	–	–	8.32%	–
O=C(O)c1cccnc1N1CCN(Cc2ccc(F)cc2)C(CCO)C1 (stereo not drawn) [UCSD-0826099]	> 50 µM	46.3%	4.04%	> 50 µM	9.42%	–
COc1ccc(CN2CCC=C(C(C)NC(C)=O)C2)cc1 (stereo not drawn) [UCSD-0826536]	–	–	–	–	6.35%	–
OC(c1ccccn1)C1CCN(Cc2cc3n(n2)CCNC3)CC1 (stereo not drawn) [UCSD-0826546]	–	–	–	–	-15.7%	–
CN1CCC(N(C)CCC(=O)N2CCC(CCc3ccccc3)CC2)C1 (stereo not drawn) [UCSD-0826822]	–	–	–	–	18.9%	–
CCc1c(C(=O)N2CCN(C)[C@@H]3CS(=O)(=O)C[C@@H]32)[nH]c2ccccc12 [UCSD-0827053]	–	–	–	–	-0.18%	–

SMILES	IC50 [1, 5]	Emax ([1]; HepG2-A16-CD81, 48 h)	HepG2 cytotoxicity 12pt dose response: Maximum inhibition (%) [2]	IC50 [3]	inhibition at 2 µM [3]	also measured
Cc1nc(NCc2noc(C3CCCO3)n2)c2sccc2n1 (stereo not drawn) [UCSD-0827338]	–	–	–	–	37.4%	–
Cc1ccc2cc(C3(O)CCN(C(=O)CSC(C)C)CC3)ccc2n1 [UCSD-0827397]	16.9 µM	–	39.9%	> 50 µM	33.3%	–
CC(C)(C)c1ncc(C(=O)NCCSc2ccccn2)c(O)n1 [UCSD-0828026]	–	–	–	–	27.1%	–
COc1cccc(CN2CCC(CO)(Cc3ccc(Cl)cc3)CC2)c1O [UCSD-0828601]	4.59 µM	95%	82.8%	12.2 µM	2.59%	–
O=C1N(CC2CC2)CCCC1(O)CN1CCc2[nH]ncc2C1 (stereo not drawn) [UCSD-0829471]	–	–	–	–	2.23%	–
C[C@H](c1ccc(F)cc1)n1c(C2CCN(C)CC2)n[nH]c1=O [UCSD-0830237]	3.28 µM	86.3%	8.15%	> 50 µM	3.06%	–
O=C(O)CSc1nnc(-c2cn[nH]c2)n1-c1ccccc1C(F)(F)F [UCSD-0830442]	5.54 µM	–	4.76%	> 50 µM	6.23%	–
COc1ccc(F)c(CN2CCCC(O)(CNCC(C)(C)C)C2=O)c1 (stereo not drawn) [UCSD-0830878]	44.7 µM	86.4%	-11.6%	> 50 µM	5.34%	–
Cc1ccc(NC(=O)CNC(C)CN2CCCCC2)c(F)c1 (stereo not drawn) [UCSD-0831198]	–	–	–	–	-1.94%	–
N[C@@H]1CC[C@H](C(=O)NCCn2cc(Cl)cn2)C1 [UCSD-0831589]	–	–	–	–	-3.85%	–
NCC1CCN(C2CCN(c3ccc(-c4ccco4)cc3)CC2)C1 (stereo not drawn) [UCSD-0833151]	4.7 µM	99.4%	–	14.1 µM	3.93%	–
COc1ccc(C(=O)C2CCCN(c3cc(OC)ncn3)C2)c(C)c1 (stereo not drawn) [UCSD-0833269]	–	–	–	–	27.4%	–
COc1cc(Oc2ncccc2C(F)(F)F)ccc1CN1CCCC1 [UCSD-0833465]	–	–	–	–	1.7%	–
CN1CCCC(CCC(=O)N2CCc3sc(C(=O)N(C)C)cc3C2)C1 (stereo not drawn) [UCSD-0833754]	> 50 µM	38.7%	3.22%	> 50 µM	-1.19%	–
Cc1cc(C)cc(CN2CCN(Cc3cccc(CCN)c3)CC2=O)c1 [UCSD-0834514]	–	–	–	–	-1.16%	–
Cc1csc2ncnc(N3CCC(Cn4cc(C(C)(C)O)nn4)CC3)c12 [UCSD-0835726]	4.82 µM	82.1%	–	> 25 µM	4.96%	Emax ([4]; maximum inhibition, read-out: rLuc inhibition dose response: Maximum inhibition (%)): 5.67%; IC50 ([4]; read-out: rLuc inhibition dose response: IC50): > 25 µM
NC(=O)CCn1cc(CNCc2csc(N)n2)c2ccccc21 [UCSD-0835992]	> 50 µM	17.4%	10.2%	> 50 µM	9.68%	–
CN(C)S(=O)(=O)c1csc(C(=O)N2CCSCC2)c1 [UCSD-0836661]	–	–	–	–	3.97%	–
Nc1cc(N2CCC(c3cc(Cc4ccccc4)n[nH]3)CC2)ccn1 [UCSD-0836781]	–	–	–	–	-2.51%	–
CCS(=O)(=O)N(C)c1ccc(C(=O)N2CCCC(C)C2)cc1 (stereo not drawn) [UCSD-0838984]	–	–	–	–	8.06%	–
O=C1NCCN1C1CCN(Cc2nc(-c3ccccc3)no2)CC1 [UCSD-0839728]	–	–	–	–	-6.19%	–
Cc1nn(C)c(Cl)c1C1CCCN1C(=O)c1ccc(C(N)=O)cn1 (stereo not drawn) [UCSD-0841146]	–	–	–	–	26.8%	–
COc1cccc(-n2nnc(C(=O)N3CCN(C)CC3C)c2C)c1 (stereo not drawn) [UCSD-0845525]	–	–	–	–	69.9%	–
